From patent US20140323534A1, “USES OF 3'-DESFERRITHIOCIN ANALOGS” (University of Florida Research Foundation, Inc., priority 2011, published 2014)
Like-named read-outs stand apart in the source and are kept apart here. Values belong to the molecule of their own block, whether it stands above or below them.

Key:
LogPapp of DFT analogs = assay type: physicochemical
[1] = Concentration of DFT analogs in rat plasma and cerebrospinal fluid after oral (PO) and subcutaneous (SC) doses; assay type: in vivo, Sprague-Dawley rats; conditions: rats, monosodium salt; for concentration at 1 h / concentration at 2 h / concentration at 4 h / concentration at 8 h / concentration at 0.5 h: male, Sprague-Dawley, rat; for concentration at 8 h / Concentration in plasma: 8 h
Description: The DFT analogs useful in the inventive methods were converted from the free acid form to the monosodium salt form. Water followed by one equivalent of sodium hydroxide was added to the DFT analog as a free acid. The resulting slurry was vortexed or sonicated until the DFT analog went into solution. More water was added, and the solution was vortexed or sonicated again. The formed yellow solution, having a pH about 7, was used as a sample solution in the following examples. It is preferred that a fresh sample solution of the DFT analog is made shortly before the solution is used in an assay.
Adult male Sprague-Dawley rats (450-500 g) were used. The rats were not fasted. A sample solution of a monosodium salt of (S)-3′-(HO)-DADFT-norPE (II-A) or (S)-3′-(HO)-DADFT-PE (III-A) was administered to the rats at an oral or subcutaneous dose of 300 μmol/kg. Concentrations of the DFT analogs in the plasma and cerebrospinal fluid of the rats were measured at 0.5 hour, 1 hour, 2 hours, 4 hours, and 8 hours post administration.

[2] = test system: acetic acid-induced colitis in rats; experiment: Prevention of acetic acid-induced colitis in a rat model; assay type: in vivo, Sprague-Dawley rats; conditions: FIG. 1: 20 mg/kg IV 30 minutes before the 4% acetic acid
[3] = cerebrospinal fluid, 300 μmol/kg PO, read-out: Concentration in cerebrospinal fluid
[4] = plasma, 300 μmol/kg PO, read-out: Concentration in plasma
[5] = cerebrospinal fluid, 300 μmol/kg SC, read-out: Concentration in cerebrospinal fluid
[6] = plasma, 300 μmol/kg SC, read-out: Concentration in plasma

- LogPapp (LogPapp of DFT analogs): −1.22
- concentration at 1 h [1, 3]: 0 µM
- concentration at 2 h [1, 3]: 0 µM
- concentration at 4 h [1, 3]: 0 µM
- concentration at 8 h ([1]; cerebrospinal fluid, 300 μmol/kg PO): 0 nM
- concentration at 0.5 h ([1]; plasma, 300 μmol/kg PO, 0.5 h, read-out: Concentration in plasma): 62 ± 24 µM
- concentration at 1 h [1, 4]: 46 ± 3 µM
- concentration at 2 h [1, 4]: 24 ± 5 µM
- concentration at 4 h [1, 4]: 13 ± 2 µM
- Concentration in cerebrospinal fluid ([1]; 300 μmol/kg PO, 0.5 h): trace
- Concentration in plasma ([1]; 300 μmol/kg PO): trace
Compound: COCCOCCOCCOc1cccc(C2=N[C@@](C)(C(=O)O)CS2)c1O [III-A]

Compound: CC(=O)N(O)CCCCCNC(=O)CCC(=O)N(O)CCCCCNC(=O)CCC(=O)N(O)CCCCCN [DFO, desferrioxamine]
- Effect on acetic acid-induced colitis [2]: prevent acetic acid-induced colitis

- LogPapp (LogPapp of DFT analogs): −0.93
- concentration at 0.5 h ([1]; cerebrospinal fluid, 300 μmol/kg SC, 0.5 h, read-out: Concentration in cerebrospinal fluid): 0 µM
- concentration at 1 h [1, 5]: 0 µM
- concentration at 2 h [1, 5]: 0 µM
- concentration at 4 h [1, 5]: 0 µM
- concentration at 8 h ([1]; cerebrospinal fluid, 300 μmol/kg SC): 0 nM
- concentration at 0.5 h ([1]; plasma, 300 μmol/kg SC, 0.5 h, read-out: Concentration in plasma): 77 ± 10 µM
- concentration at 1 h [1, 6]: 66 ± 5 µM
- concentration at 2 h [1, 6]: 44 ± 2 µM
- concentration at 4 h [1, 6]: 7 ± 1 µM
- Concentration in plasma ([1]; 300 μmol/kg SC): trace
Compound: COCCOCCOc1cccc(C2=N[C@@](C)(C(=O)O)CS2)c1O [II-A]
